± gives the expanded uncertainty stated by the source.
What was measured:
[1] = 344.15 K; for mass density: Vibrating tube method; for surface tension liquid-gas: Pendant drop shape
[2] = 344.15 K, Liquid, pendant drop shape

SMILES	mass density ([1]; 101.3 kPa, Liquid) [kg/m3]	surface tension liquid-gas ([1]; Liquid) [mN/m]	interfacial tension ([2]; 100 kPa) [mN/m]	interfacial tension ([2]; 1000 kPa) [mN/m]	interfacial tension ([2]; 2000 kPa) [mN/m]	interfacial tension ([2]; 3000 kPa) [mN/m]	interfacial tension ([2]; 4000 kPa) [mN/m]	interfacial tension ([2]; 5000 kPa) [mN/m]	interfacial tension ([2]; 6000 kPa) [mN/m]	interfacial tension ([2]; 7000 kPa) [mN/m]	interfacial tension ([2]; 8000 kPa) [mN/m]	interfacial tension ([2]; 9000 kPa) [mN/m]	interfacial tension ([2]; 10000 kPa) [mN/m]	interfacial tension ([2]; 11000 kPa) [mN/m]	interfacial tension ([2]; 12000 kPa) [mN/m]	interfacial tension ([2]; 13000 kPa) [mN/m]	interfacial tension ([2]; 14000 kPa) [mN/m]	mass density ([1]; 101.33 kPa, Gas) [kg/m3]
CCCCCCCCCCCCCC [tetradecane]	727.1 ± 0.22	22.07 ± 0.25																
CCCCCCCCCCCCCC [tetradecane] + O=C=O			22.07 ± 0.02	20.41 ± 0.02	18.55 ± 0.02	16.7 ± 0.02	14.87 ± 0.02	13.06 ± 0.02	11.31 ± 0.02	9.61 ± 0.02	8 ± 0.02	6.48 ± 0.02	5.07 ± 0.02	3.78 ± 0.02	2.63 ± 0.02	1.64 ± 0.02	0.82 ± 0.02	
O=C=O [carbon dioxide]																		1.563 ± 0.032

Continued, values first:

mass density ([1]; 101.3 kPa, Liquid) [kg/m3]	surface tension liquid-gas ([1]; Liquid) [mN/m]	interfacial tension ([2]; 100 kPa) [mN/m]	interfacial tension ([2]; 1000 kPa) [mN/m]	interfacial tension ([2]; 2000 kPa) [mN/m]	interfacial tension ([2]; 3000 kPa) [mN/m]	interfacial tension ([2]; 4000 kPa) [mN/m]	interfacial tension ([2]; 5000 kPa) [mN/m]	interfacial tension ([2]; 6000 kPa) [mN/m]	interfacial tension ([2]; 7000 kPa) [mN/m]	interfacial tension ([2]; 8000 kPa) [mN/m]	interfacial tension ([2]; 9000 kPa) [mN/m]	interfacial tension ([2]; 10000 kPa) [mN/m]	interfacial tension ([2]; 11000 kPa) [mN/m]	interfacial tension ([2]; 12000 kPa) [mN/m]	interfacial tension ([2]; 13000 kPa) [mN/m]	interfacial tension ([2]; 14000 kPa) [mN/m]	mass density ([1]; 101.33 kPa, Gas) [kg/m3]	SMILES
720.2 ± 0.22	21.56 ± 0.24																	CCCCCCCCCCCCC [tridecane]
		20.72 ± 0.02	18.54 ± 0.02	16.53 ± 0.02	14.74 ± 0.02	13.03 ± 0.02	11.31 ± 0.02	9.57 ± 0.02	7.82 ± 0.02	6.12 ± 0.02	4.57 ± 0.02	3.24 ± 0.02	2.26 ± 0.02					CCCCCCCCCCCC [dodecane] + O=C=O
712.1 ± 0.22	20.72 ± 0.24																	CCCCCCCCCCCC [dodecane]
		21.56 ± 0.02	19.68 ± 0.02	17.65 ± 0.02	15.67 ± 0.02	13.77 ± 0.02	11.94 ± 0.02	10.18 ± 0.02	8.52 ± 0.02	6.95 ± 0.02	5.49 ± 0.02	4.13 ± 0.02	2.89 ± 0.02	1.77 ± 0.02	0.78 ± 0.02			CCCCCCCCCCCCC [tridecane] + O=C=O
